Test results as given in patent US10544130B2, “Metallo-beta-lactamase inhibitors” (priority 2015, dated 2020).
Structures can show the parent of a compound that is named as a salt. Where two headings read alike, the source gives them in different places.

What was measured:
[1] = test system: Klebsiella pneumoniae expressing VIM-1 (IHMA599644); type: cell-based; conditions: with imipenem 1 μg/ml; 95% inhibition of bacterial growth
Summary of the method: (§1)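 Growth read by absorbance after 22–24 h at 35 °C in CAMHB, with test compound alone or combined with 1 μg/ml imipenem. Inocula came from overnight 35 °C blood-agar colonies, set to a defined OD600 and diluted 1:100. Value is the inhibitor concentration giving synergy.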

[2] = test system: Serratia marcescens expressing IMP-1 (CL5741); type: cell-based; conditions: with imipenem 1 μg/ml; 95% inhibition of bacterial growth
Summary of the method: as §1

[3] = test system: Escherichia coli expressing NDM-1 (CLB30005, CLB30016); type: cell-based; conditions: with imipenem 1 μg/ml; 95% inhibition of bacterial growth
Summary of the method: as §1

[4] = test system: Pseudomonas aeruginosa PAO1 MB9798 (efflux+, IMP-1); conditions: imipenem at 2 μg/mL
Summary of the method: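 Isogenic PAO1 pair (efflux+ MB9798, efflux− MB9799, both IMP-1) tested by microbroth MIC with fixed imipenem and/or ceftazidime, usually at CLSI breakpoint, plus fixed class A/C inhibitor against AmpC. MBL inhibitor titrated; concentration restoring susceptibility recorded and fold difference between strains taken as efflux extent.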

[5] = fold difference between efflux + (MB9798) and efflux − (MB9799) strains
[6] = ratio MITC95 PA 9798/MITC95 PA 9799

Row | SMILES | Klebsiella pneumoniae (VIM-1) MITC95 [1] | Serratia marcescens (IMP-1) MITC95 [2] | Escherichia coli (NDM-1) MITC95 [3] | Efflux ratio [4, 5] | Efflux ratio [4, 6]
1 | NCC(=O)NC1C=C(c2ccc(S(=O)(=O)N[C@@H]3CCNC3)c(S(N)(=O)=O)c2-c2nn[nH]n2)CCC1 (stereo partly drawn) [Example 269, 2-Amino-N-(4′-(N—((R)-pyrrolidin-3-yl)sulfamoyl)-3′-sulfamoyl-2′-(2H-tetrazol-5-yl)-3,4,5,6-tetrahydro-[1,1′-biphenyl]-3-yl)acetamide] | 3.125 µM | 1.563 µM | 1.563 µM | – | –
2 | NC[C@@]1(NS(=O)(=O)c2ccc(-c3ccc(N)nc3)c(-c3nn[nH]n3)c2S(N)(=O)=O)CCNC1 [Example 487, (S)-N1-(3-(aminomethyl)pyrrolidin-3-yl)-4-(6-aminopyridin-3-yl)-3-(2H-tetrazol-5-yl)benzene-1,2-disulfonamide dihydrochloride] | 1.563 µM | 0.7813 µM | – | 1.00 | –
3 | NCc1nc2c(-c3ccc(S(=O)(=O)N[C@H](CN)CO)c(S(N)(=O)=O)c3-c3nn[nH]n3)cccc2s1 [Example 363, (R)—N1-(1-amino-3-hydroxypropan-2-yl)-4-(2-(aminomethyl)benzo[d]thiazol-4-yl)-3-(2H-tetrazol-5-yl)benzene-1,2-disulfonamide] | 3.125 µM | – | 3.125 µM | – | 4.00
4 | NC[C@]1(NS(=O)(=O)c2ccc(-c3ccc(N)nc3)c(-c3nn[nH]n3)c2S(N)(=O)=O)CCNC1 [Example 486, (R)-N1-(3-(aminomethyl)pyrrolidin-3-yl)-4-(6-aminopyridin-3-yl)-3-(2H-tetrazol-5-yl)benzene-1,2-disulfonamide dihydrochloride] | 1.563 µM | – | 0.7813 µM | 2.00 | –
5 | NCCNS(=O)(=O)c1ccc(-c2cccc3sc(CN)nc23)c(-c2nn[nH]n2)c1S(N)(=O)=O [Example 345, N^1-(2-aminoethyl)-4-(2-(aminomethyl)benzo[d]thiazol-4-yl)-3-(2H-tetrazol-5-yl)benzene-1,2-disulfonamide] | 0.7813 µM | 0.7813 µM | – | – | 1.00
6 | C[C@H](CN)NS(=O)(=O)c1ccc(-c2ccnc(N)c2)c(-c2nn[nH]n2)c1S(N)(=O)=O [Example 317, (R)—N1-(1-aminopropan-2-yl)-4-(2-aminopyridin-4-yl)-3-(2H-tetrazol-5-yl) benzene-1,2-disulfonamide] | 3.125 µM | 1.563 µM | – | – | 0.50
7 | NCCNS(=O)(=O)c1ccc(-c2ccc3nccn3c2)c(-c2nn[nH]n2)c1S(N)(=O)=O [Example 401, N^1-(2-aminoethyl)-4-(imidazo[1,2-a]pyridin-6-yl)-3-(2H-tetrazol-5-yl)benzene-1,2-disulfonamide] | 1.563 µM | – | 0.7813 µM | – | –
8 | Nc1nc2c(-c3ccc(S(=O)(=O)NC[C@H]4CCCN4)c(S(N)(=O)=O)c3-c3nn[nH]n3)cccc2[nH]1 [Example 261, (R)-4-(2-amino-1H-benzo[d]imidazol-4-yl)-N1-(pyrrolidin-2-ylmethyl)-3-(2H-tetrazol-5-yl) benzene-1,2-disulfonamide] | 0.7813 µM | 0.7813 µM | – | – | 1.00
9 | CN(C1CNC1)S(=O)(=O)c1ccc(-c2cccc3[nH]c(N)nc23)c(-c2nn[nH]n2)c1S(N)(=O)=O [Example 255, 4-(2-amino-1H-benzo[d]imidazol-4-yl)-N1-(azetidin-3-yl)-N1-methyl-3-(2H-tetrazol-5-yl)benzene-1,2-disulfonamide] | 0.7813 µM | 0.7813 µM | – | – | 2.00
10 | CC1(NS(=O)(=O)c2ccc(-c3cccc4[nH]c(N)nc34)c(-c3nn[nH]n3)c2S(N)(=O)=O)CNC1 [Example 257, 4-(2-amino-1H-benzo[d]imidazol-4-yl)-N1-(3-methylazetidin-3-yl)-3-(2H-tetrazol-5-yl)benzene-1,2-disulfonamide] | 0.7813 µM | 0.7813 µM | – | – | 1.00
11 | NCCNC(=O)c1cccc(-c2ccc(S(=O)(=O)NCCN)c(S(N)(=O)=O)c2-c2nn[nH]n2)c1 [Example 334, N-(2-aminoethyl)-4′-(N-(2-aminoethyl)sulfamoyl)-3′-sulfamoyl-2′-(2H-tetrazol-5-yl)-[1,1′-biphenyl]-3-carboxamide] | 0.7813 µM | 0.7813 µM | – | – | 2.00
12 | NC[C@@H](CO)NS(=O)(=O)c1ccc(-c2ccnc(N)c2)c(-c2nn[nH]n2)c1S(N)(=O)=O [Example 380, (S)—N1-(1-amino-3-hydroxypropan-2-yl)-4-(2-aminopyridin-4-yl)-3-(2H-tetrazol-5-yl)benzene-1,2-disulfonamide] | 1.563 µM | 0.7813 µM | – | – | 1.00
13 | C[C@H](N)c1nc2c(-c3ccc(S(=O)(=O)N[C@@H]4CCNC4)c(S(N)(=O)=O)c3-c3nn[nH]n3)cccc2[nH]1 [Example 272, 4-(2-((S)-1-aminoethyl)-1H-benzo[d]imidazol-4-yl)-N1-((R)-pyrrolidin-3-yl)-3-(2H-tetrazol-5-yl)benzene-1,2-disulfonamide] | 1.563 µM | 1.563 µM | – | – | 2.00
14 | Nc1nc2c(-c3ccc(S(=O)(=O)NC[C@@H]4CCCN4)c(S(N)(=O)=O)c3-c3nn[nH]n3)cccc2[nH]1 [Example 262, (S)-4-(2-amino-1H-benzo[d]imidazol-4-yl)-N1-(pyrrolidin-2-ylmethyl)-3-(2H-tetrazol-5-yl)benzene-1,2-disulfonamide] | 0.7813 µM | 0.7813 µM | – | – | 1.00
15 | N[C@@H]1CNC[C@@H]1NS(=O)(=O)c1ccc(-c2cnc3cc[nH]c3c2)c(-c2nn[nH]n2)c1S(N)(=O)=O [Example 326, N1-((3S,4R)-4-aminopyrrolidin-3-yl)-4-(1H-pyrrolo[3,2-b]pyridin-6-yl)-3-(2H-tetrazol-5-yl)benzene-1,2-disulfonamide] | 1.563 µM | 1.563 µM | – | – | 1.00
16 | NC[C@@H](N)CNS(=O)(=O)c1ccc(-c2cccc3[nH]c(N)nc23)c(-c2nn[nH]n2)c1S(N)(=O)=O [Example 375, (R)-4-(2-amino-1H-benzo[d]imidazol-4-yl)-N1-(2,3-diaminopropyl)-3-(2H-tetrazol-5-yl)benzene-1,2-disulfonamide] | 1.563 µM | 1.563 µM | – | – | 1.00
17 | Nc1ccc(-c2ccc(S(=O)(=O)NC[C@H](N)CO)c(S(N)(=O)=O)c2-c2nn[nH]n2)cn1 [Example 297, (S)—N^1-(2-amino-3-hydroxypropyl)-4-(6-aminopyridin-3-yl)-3-(2H-tetrazol-5-yl) benzene-1,2-disulfonamide] | 1.563 µM | 0.7813 µM | – | – | 1.00
18 | NCc1nc2c(-c3ccc(S(=O)(=O)N[C@@H]4CCNC4)c(S(N)(=O)=O)c3-c3nn[nH]n3)cccc2s1 [Example 276, (R)-4-(2-(aminomethyl)benzo[d]thiazol-4-yl)-N1-(pyrrolidin-3-yl)-3-(2H-tetrazol-5-yl)benzene-1,2-disulfonamide] | 0.7813 µM | 0.7813 µM | – | – | 1.00
19 | NC[C@H](N)CNS(=O)(=O)c1ccc(-c2cnc3cc[nH]c3c2)c(-c2nn[nH]n2)c1S(N)(=O)=O [Example 373, (S)-N1-(2,3-diaminopropyl)-4-(1H-pyrrolo[3,2-b]pyridin-6-yl)-3-(2H-tetrazol-5-yl)benzene-1,2-disulfonamide] | 3.125 µM | 1.563 µM | – | – | 1.00
20 | Nc1nc2c(-c3ccc(S(=O)(=O)N[C@@H]4CNC[C@@H]4N)c(S(N)(=O)=O)c3-c3nn[nH]n3)cccc2[nH]1 [Example 240, 4-(2-amino-1H-benzo[d]imidazol-4-yl)-N^1-((3R,4S)-4-aminopyrrolidin-3-yl)-3-(2H-tetrazol-5-yl)benzene-1,2-disulfonamide] | 1.563 µM | 0.7813 µM | – | – | 1.00
21 | NCCNS(=O)(=O)c1ccc(-c2cccc(-c3c[nH]c(N)n3)c2)c(-c2nn[nH]n2)c1S(N)(=O)=O [Example 353, 3′-(2-amino-1H-imidazol-4-yl)-N4-(2-aminoethyl)-2-(2H-tetrazol-5-yl)-[1,1′-biphenyl]-3,4-disulfonamide] | 1.563 µM | 0.7813 µM | – | – | 2.00
22 | NCc1csc(Nc2cccc(-c3ccc(S(=O)(=O)N[C@@H]4CCNC4)c(S(N)(=O)=O)c3-c3nn[nH]n3)c2)n1 [Example 290, (R)-3′-((4-(aminomethyl)thiazol-2-yl)amino)-N4-(pyrrolidin-3-yl)-2-(2H-tetrazol-5-yl)-[1,1′-biphenyl]-3,4-disulfonamide] | 0.7813 µM | 0.7813 µM | – | – | 2.00
